US5644059A, “1,4-dihydropyridine derivatives and methods of producing the same” (Fujirebio Inc., priority 1990, dated 1997)

What follows are compounds tested on platelet aggregation (assay: Test for platelet aggregation-inhibiting activity of rabbit (PAF-induced aggregation in platelet rich plasma)). Settings: rabbit PRP, 37°C, 10 minutes incubation, aggregation by PAF (10 μl); test compound concentration not given.
Format: cell-based
Design: dose or concentration left out as unconfirmed
Procedure: 2. Test for platelet aggregation-inhibiting activity of rabit
A blood of a rabbit (Japanese white; male; 2.5-3.0 kg) was exsanguinated from a carotid of the rabbit, and nine parts of the blood were mixed with one part of a 3.8% aqueous solution of sodium citrate. The mixture was centrifuged at 1100 rpm at 20°C. for 15 minutes. The upper layer is a platelet rich plasma (PRP), and the lower layer was centrifuged at 2500 rpm at 20° C. for 10 minutes, so that a platelet poor plasma (PPP) was obtained.
10 μl of a solution of the compound to be tested was added to 200 μl of PRP, and the mixture was subjected to incubation at 37°C. for 10 minutes. To the mixture was added 10 μl of a platelet activating factor (PAF)(10 mg/ml). The agglutination was measured by Agricometer (NKK, PAT-4A).
With `COC(=O)C1=C(C)NC(C)=C(C(=O)N[C@H](C(=O)OC(C)(C)C)C(C)C)C1c1cccc([N+](=O)[O-])c1` (single isomer, unassigned) [1 (Compound a)] the “Platelet Aggregation-Inhibiting Activity” value was 42.8%. In the case of `COC(=O)C1=C(C)NC(C)=C(C(=O)N[C@@H](C(=O)OC(C)(C)C)C(C)C)C1c1cccc([N+](=O)[O-])c1` (single isomer, unassigned) [2 (Compound a)], the “Platelet Aggregation-Inhibiting Activity” value was 25.5%. In the case of `COC(=O)C1=C(C)NC(C)=C(C(=O)N[C@H](C(=O)OC(C)(C)C)C(C)C)C1c1ccccc1Cl` (single isomer, unassigned) [7 (Compound a)], the “Platelet Aggregation-Inhibiting Activity” value was 54.1%. For `COC(=O)C1=C(C)NC(C)=C(C(=O)N[C@H](C(=O)OC(C)(C)C)C(C)C)C1c1ccccc1F` (single isomer, unassigned) [13 (Compound a)], the “Platelet Aggregation-Inhibiting Activity” value was 37.7%. For `COC(=O)C1=C(C)NC(C)=C(C(=O)N[C@H](C(=O)OC(C)(C)C)C(C)C)C1c1cccc(Cl)c1` (single isomer, unassigned) [18 (Compound a)], the “Platelet Aggregation-Inhibiting Activity” value was 33.8%. `COC(=O)C1=C(C)NC(C)=C(C(=O)N[C@H](C(=O)OC(C)(C)C)C(C)C)C1c1cccc(F)c1` (single isomer, unassigned) [19 (Compound a)] was tested, and the “Platelet Aggregation-Inhibiting Activity” value was 35.4%. With `COC(=O)C1=C(C)NC(C)=C(C(=O)N[C@H](C(=O)OC(C)(C)C)C(C)C)C1c1cccc(C#N)c1` (single isomer, unassigned) [22 (Compound a)] the “Platelet Aggregation-Inhibiting Activity” value was 20.2%. `COC(=O)C1=C(C)NC(C)=C(C(=O)N[C@H](C(=O)OC(C)(C)C)C(C)C)C1c1ccccc1` (single isomer, unassigned) [24 (Compound a)] was tested, and the “Platelet Aggregation-Inhibiting Activity” value was 24.3%. For `COC(=O)C1=C(C)NC(C)=C(C(=O)N[C@H](C(=O)OC(C)(C)C)C(C)C)C1c1ccccc1[N+](=O)[O-]` (single isomer, unassigned) [27 (Compound a)], the “Platelet Aggregation-Inhibiting Activity” value was 33.3%. In the case of `COCCOC(=O)C1=C(C)NC(C)=C(C(=O)N[C@H](C(=O)OC(C)(C)C)C(C)C)C1c1cccc([N+](=O)[O-])c1` (single isomer, unassigned) [50 (Compound a)], the “Platelet Aggregation-Inhibiting Activity” value was 23.5%. In the case of `CC1=C(C(=O)NCC(=O)OC(C)(C)C)C(c2cccc([N+](=O)[O-])c2)C(C(=O)N[C@H](C(=O)OC(C)(C)C)C(C)C)=C(C)N1` (single isomer, unassigned) [52 (Compound a)], the “Platelet Aggregation-Inhibiting Activity” value was 29.2%. `COC(=O)C1=C(C)NC(C)=C(C(=O)N[C@@H](C(=O)OC(C)(C)C)C(C)C)C1c1cccc([N+](=O)[O-])c1` (stereo partly shown) [2 (Compound b)] was tested, and the “Platelet Aggregation-Inhibiting Activity” value was 98.2%. In the case of `COC(=O)C1=C(C)NC(C)=C(C(=O)NCC(=O)OC(C)(C)C)C1c1cccc([N+](=O)[O-])c1` (stereo not shown) [Example 3, t-butyl 2-[N-[1,4-dihydro-2,6-dimethyl-5-methoxycarbonyl-4-(3-nitrophenyl)pyridine-3-carbonyl]amino]acetate], the “Platelet Aggregation-Inhibiting Activity” value was 100%. `COC(=O)C1=C(C)NC(C)=C(C(=O)NCC(=O)OC(C)(C)C)C1c1ccccc1Cl` (stereo not shown) [Example 8, t-butyl 2-[N-[1,4-dihydro-2,6-dimethyl-5-methoxycarbonyl-4-(2-chlorophenyl)pyridine-3-carbonyl]-amino]acetate] was tested, and the “Platelet Aggregation-Inhibiting Activity” value was 39.1%. In the case of `COC(=O)C1=C(C)NC(C)=C(C(=O)N[C@@H](C)C(=O)OC(C)(C)C)C1c1ccccc1Cl` (stereo partly drawn) [Example 9, t-butyl 2-(S)-[N-[1,4-dihydro-2,6-dimethyl-5-methoxycarbonyl-4-(2-chlorophenyl)pyridine-3-carbonyl]amino]propionate], the “Platelet Aggregation-Inhibiting Activity” value was 29.8%. In the case of `COC(=O)C1=C(C)NC(C)=C(C(=O)N[C@H](C(=O)OC(C)(C)C)C(C)C)C1c1cccc(OC)c1` (stereo partly drawn) [Example 23, t-butyl 2-(S)-[N-[1,4-dihydro-2,6-dimethyl-5-methoxycarbonyl-4-(3-methoxyphenyl)pyridine-3-carbonyl]-amino]-3-methylbutylate], the “Platelet Aggregation-Inhibiting Activity” value was 33.6%. For `COC(=O)C1=C(C)NC(C)=C(C(=O)NCC(=O)OC(C)(C)C)C1c1cccc(Cl)c1` (stereo not shown) [Example 32, t-butyl 2-[N-[1,4-dihydro-2,6-dimethyl-5-methoxycarbonyl-4-(3-chlorophenyl)pyridine-3-carbonyl]-amino]acetate], the “Platelet Aggregation-Inhibiting Activity” value was 100%. In the case of `COC(=O)C1=C(C)NC(C)=C(C(=O)NCC(=O)OC(C)(C)C)C1c1ccccc1C#N` (stereo not shown) [Example 33, t-butyl 2-[N-[1,4-dihydro-2,6-dimethyl-5-methoxycarbonyl-4-(2-cyanophenyl)pyridine-3-carbonyl]-amino]acetate], the “Platelet Aggregation-Inhibiting Activity” value was 94.2%. In the case of `COC(=O)C1=C(C)NC(C)=C(C(=O)NCC(=O)OC(C)(C)C)C1c1cccc(C#N)c1` (stereo not shown) [Example 34, t-butyl 2-[N-[1,4-dihydro-2,6-dimethyl-5-methoxycarbonyl-4-(3-cyanophenyl)pyridine-3-carbonyl]-amino]acetate], the “Platelet Aggregation-Inhibiting Activity” value was 100%. In the case of `COC(=O)C1=C(C)NC(C)=C(C(=O)NCC(=O)OC(C)(C)C)C1c1cccc(C)c1` (stereo not shown) [Example 35, t-butyl 2-[N-[1,4-dihydro-2,6-dimethyl-5-methoxycarbonyl-4-(3-methylphenyl)pyridine-3-carbonyl]-amino]acetate], the “Platelet Aggregation-Inhibiting Activity” value was 32.3%. For `CCOC(=O)C1=C(C)NC(C)=C(C(=O)NCC(=O)OC(C)(C)C)C1c1cccc([N+](=O)[O-])c1` (stereo not shown) [Example 36, t-butyl 2-[N-[1,4-dihydro-2,6-dimethyl-5-ethoxycarbonyl-4-(3-nitrophenyl)pyridine-3-carbonyl]-amino]acetate], the “Platelet Aggregation-Inhibiting Activity” value was 100%. `CC1=C(C(=O)NCC(=O)OC(C)(C)C)C(c2cccc([N+](=O)[O-])c2)C(C(=O)OC(C)C)=C(C)N1` (stereo not shown) [Example 37, t-butyl 2-[N-[1,4-dihydro-2,6-dimethyl-5-isopropyloxycarbonyl-4-(3-nitrophenyl)pyridine-3-carbonyl]amino]acetate] was tested, and the “Platelet Aggregation-Inhibiting Activity” value was 100%. `COCCOC(=O)C1=C(C)NC(C)=C(C(=O)NCC(=O)OC(C)(C)C)C1c1cccc([N+](=O)[O-])c1` (stereo not shown) [Example 38, t-butyl 2-[N-[1,4-dihydro-2,6-dimethyl-5-(2-methoxyethyloxycarbonyl)-4-(3-nitrophenyl)pyridine-3-carbonyl]amino]acetate] was tested, and the “Platelet Aggregation-Inhibiting Activity” value was 100%. `COC(=O)C1=C(C)NC(C)=C(C(=O)NCC(=O)OC(C)(C)C)C1c1ccccc1C` (stereo not shown) [Example 47, t-butyl 2-[N-[1,4-dihydro-2,6-dimethyl-5-methoxycarbonyl-4-(2-methylphenyl)pyridine-3-carbonyl]-amino]acetate] was tested, and the “Platelet Aggregation-Inhibiting Activity” value was 32.7%. `CCOC(=O)C1=C(C)NC(C)=C(C(=O)N[C@H](C(=O)OC(C)(C)C)C(C)C)C1c1cccc([N+](=O)[O-])c1` (stereo partly drawn) [Example 48, t-butyl 2-(S)-[N-[1,4-dihydro-2,6-dimethyl-5-ethoxycarbonyl-4-(3-nitrophenyl)pyridine-3-carbonyl]amino]-3-methylbutylate] was tested, and the “Platelet Aggregation-Inhibiting Activity” value was 41.5%. With `CC1=C(C(=O)N[C@H](C(=O)OC(C)(C)C)C(C)C)C(c2cccc([N+](=O)[O-])c2)C(C(=O)OC(C)C)=C(C)N1` (stereo partly shown) [Example 49] the “Platelet Aggregation-Inhibiting Activity” value was 38.9%. In the case of `COC(=O)C1=C(C)NC(C)=C(C(=O)NCC(=O)N2CCCC2)C1c1cccc([N+](=O)[O-])c1` (stereo not shown) [Example 57, methyl 1,4-dihydro-2,6-dimethyl-4-(3-nitrophenyl)-5-[N-[(pyrrolidin-1-yl)carbonylmethyl]carbamoyl]pyridine-3-carboxylate], the “Platelet Aggregation-Inhibiting Activity” value was 64.5%. In the case of `COC(=O)C1=C(C)NC(C)=C(C(=O)NCC(=O)N2CCN(c3ccccc3)CC2)C1c1cccc([N+](=O)[O-])c1` (stereo not shown) [Example 58, methyl 1,4-dihydro-2,6-dimethyl-4-(3-nitrophenyl)-5-[N-[(4-phenylpiperazinyl)carbonylmethyl]-carbamoyl]pyridine-3-carboxylate], the “Platelet Aggregation-Inhibiting Activity” value was 22.1%. For `COCCOC(=O)CNC(=O)C1=C(C)NC(C)=C(C(=O)OC)C1c1cccc([N+](=O)[O-])c1` (stereo not shown) [Example 60], the “Platelet Aggregation-Inhibiting Activity” value was 47.2%. In the case of `CCOC(=O)CNC(=O)C1=C(C)NC(C)=C(C(=O)OC)C1c1cccc([N+](=O)[O-])c1` (stereo not shown) [Example 62, ethyl 2-[N-[1,4-dihydro-2,6-dimethyl-5-methoxycarbonyl-4-(3-nitropheny1)pyridine-3-carbonyl]amino]-acetate], the “Platelet Aggregation-Inhibiting Activity” value was 64.3%. In the case of `COC(=O)C1=C(C)NC(C)=C(C(=O)NCC(=O)OC(C)C)C1c1cccc([N+](=O)[O-])c1` (stereo not shown) [Example 63, isopropyl 2-[N-[1,4-dihydro-2,6-dimethyl-5-methoxycarbonyl-4-(3-nitrophenyl)pyridine-3-carbonyl]-amino]acetate], the “Platelet Aggregation-Inhibiting Activity” value was 100%. `CCOC(=O)CCNC(=O)C1=C(C)NC(C)=C(C(=O)OC)C1c1cccc([N+](=O)[O-])c1` (stereo not shown) [Example 64, ethyl 3-[N-[1,4-dihydro-2,6-dimethyl-5-methoxycarbonyl-4-(3-nitrophenyl)pyridine-3-carbonyl]amino]-propionate] was tested, and the “Platelet Aggregation-Inhibiting Activity” value was 52.6%. For `CCOC(=O)CN(C)C(=O)C1=C(C)NC(C)=C(C(=O)OC)C1c1cccc([N+](=O)[O-])c1` (stereo not shown) [Example 65], the “Platelet Aggregation-Inhibiting Activity” value was 42.7%. For `COC(=O)C1=C(C)NC(C)=C(C(=O)NCC(=O)N[C@H](C(=O)OC(C)(C)C)C(C)C)C1c1cccc([N+](=O)[O-])c1` (stereo partly drawn) [Example 66, t-butyl 2-(S)-[N-[[N-[1,4-dihydro-2,6-dimethyl-5-methoxycarbonyl-4-(3-nitrophenyl)pyridine-3-carbonyl]amino]acetyl]amino]-3-methylbutylate], the “Platelet Aggregation-Inhibiting Activity” value was 100%.
